According to patent US20040242886A1, “Monocyclic diazodioxide based Bcl-2 protein antagonists related applications” (priority 2003, published 2004):
Read-outs that look alike come from different tables or passages of the source.

What was measured:
[1] = system: A549 human lung cells expressing low Bcl-2 and high Bcl-XL levels; test: Acute cytotoxicity (apoptotic activity), Alamar Blue viability, A549 cells; type: cell-based; conditions: Homo sapiens, A549, 4 h; read-out: LC 50 (μM) A549
Procedure: (§1) The biological activity of the compounds provided herein were assessed in cellular system by the method similar to the one described by Amundson et al. (Amundson, S. A. et al, Cancer Research 2000, 60, 6101-6110), which is incorporated herein by reference in its entirety. The compounds were tested for acute cytotoxicity (apoptotic activity) using two human cancer cell lines expressing high levels of either Bcl-2 or BCl-XL. HL60, human leukemic cells expressing high Bcl-2 and low BCl-XL levels, and A549 human lung cells expressing low Bcl-2 and high BCl-XL levels, were incubated with the compounds at concentrations between 0.5 and 1000 μg/mL for 4 hours at 37° C., 5% CO2. The number of viable cells were measured by mitochondrial transformation of Alamar Blue to a fluorescent dye. LC50 values for each test compound and controls are provided in the individual examples that follow.
(§2) The compounds provided herein were tested for acute cytoxicity (apoptotic activity) using two human cancer cell lines expressing high levels of either Bcl-2 or BCl-XL. HL-60 cells expressing high Bcl-2 and low Bcl-XL levels, and A549 human lung cells expressing low Bcl-2 and high Bcl-XL levels were incubated with the compounds provided herein at concentrations between 0.5 and 1000 μg/mL for 4 hours at 37° C., 5% CO2. The number of viable cells were measured by mitochondrial transformation of Alamar Blue to a fluorescent dye. As negative controls, the compounds were tested against the cell lines with low levels of Bcl-2 expression, viz., MDA-453 cells. LC50 values for each compound and controls were determined.

[2] = system: HL60, human leukemic cells expressing high Bcl-2 and low Bcl-XL levels; test: Acute cytotoxicity (apoptotic activity), Alamar Blue viability, HL-60 cells; type: cell-based; conditions: Homo sapiens, HL-60, 4 h; read-out: LC 50 (μM) HL-60
Procedure: as §1, §2

Bcl-2 and Bcl XL = conditions: literature value, cited from earlier work
cell = conditions: cited from earlier work

O=C(Nc1cc(S(=O)(=O)c2ccc(Cl)cc2)ccc1Cl)c1cc(Cl)cc(I)c1O [compound 6, reference compound]
CC50 [1]: > 200 µM | CC50 [2]: < 50 µM | IC50 (Bcl-2 and Bcl XL; protein not specified): 3.3 µM | CC50 (cell; read-out: LC50 (cell), cell line not specified, literature value): ~30 µM

Cc1cc2c(C(C)C)c(O)c(O)c(C=O)c2c(O)c1-c1c(C)cc2c(C(C)C)c(O)c(O)c(C=O)c2c1O [compound 1]
CC50 (cell): 1.5 µM

CC(C)Cc1cc(-c2ccc(-c3ccc(OCC(=O)O)c(CC(C)C)c3)c(Cc3cccc4ccccc34)c2)ccc1CCC(=O)O [compound 7]
IC50 (Bcl-2 and Bcl XL; Bcl-2 antagonist): 0.114 µM
